Experimental findings from US20260335265A1, “ANTICANCER COMPOSITION COMPRISING MALATE METAL SALT” (BIOSOLYX, priority 2022, published 2026) are described below.

In test [1] the test system is NAD^+ in liver cancer (HepG2), breast cancer (MDA-MB-231), or lung cancer (H1975) cells. Briefly: NAD^+ levels in treated cancer cells (NAD^+ assay kit). It counts as cell-based. The settings on record: HepG2, MDA-MB-231, H1975 cells, CaMal 5 mM, CaMal2 2.5 mM, CaMal-DCA 1 mM, 48 hours, vs untreated controls, p<0.001 (FIG. 2). As to the method: 1×10^6 liver cancer (HepG2), breast cancer (MDA-MB-231), or lung cancer (H 1975) cells were treated with CaMal of 5 mM, CaMal2 of 2.5 mM, or CaMal-DCA of 1 mM for 48 hours, respectively. Then, NAD^+ levels were then analyzed according to the method of Abcam's NAD^+ assay kit.

Test [2] has as its system pancreatic cancer (Aspc-1) cells. Briefly: Cancer cell survival rate (MTT reagent, absorbance). The settings on record: 0.5, 1, 2.5, or 5 mM, 96 hours, p<0.001 vs lower-concentration groups (FIGS. 5, 6). Type of test: cell-based. As to the method:
(§1) 3×10^3 kidney cancer (Caki-1) or pancreatic cancer (Aspc-1) cells were incubated for 24 hours and then treated with CaMal2 of 0.5, 1, 2.5, or 5 mM and incubated for 96 hours again. Then, 3-(4,5-dimethylthiazol-2-yl)-2,5-diphenyltetrazolium bromide reagent of 10 μl was added to each well and reacted for 1 hour. After removing the reagent at the end of the reaction, DMSO 200 of μl was added to each well and the absorbance was measured to confirm the survival rate of the cells.
3×10^3 liver cancer (HepG2), lung cancer (H1975), pancreatic cancer (Aspc-1), or breast cancer (MDA-MB-231) cells were cultured for 24 hours and then treated with CaMal-DCA of 0.5, 1, 2.5, or 5 mM and incubated for another 96 hours. Then, 3-(4,5-dimethylthiazol-2-yl)-2,5-diphenyltetrazolium bromide reagent of 10 μl was added to each well and reacted for 1 hour. After removing the reagent at the end of the reaction, DMSO of 200 μl was added to each well and the absorbance was measured to confirm the survival rate of the cells.

The test system of test [3] is liver cancer (HepG2) cells. Briefly: Tumor growth inhibition in liver cancer xenograft mice. Type of test: in vivo, Athymic Balb/c nude mice. The settings on record: 80 mg/kg orally five times a week; 30 days; vs untreated controls; p<0.001 (FIG. 11). As to the method: 1×10^7 liver cancer (HepG2) cells were implanted with Athymic Balb/c nude mice and when they grew to approximately 200 mm^3, CaMal2 of 80 mg/kg was administered orally five times a week to observe tumor growth for 30 days.

Test [4] concerns kidney cancer (Caki-1) cells. Briefly: Cancer cell survival rate (MTT reagent, absorbance). It counts as cell-based. The note with it: 0.5, 1, 2.5, or 5 mM, 96 hours, p<0.001 vs lower-concentration groups (FIG. 5). The protocol:
as §1

Test [5] relates to Malate dehydrogenase 2 (MDH2). As to the kind of experiment: Malate dehydrogenase 2 (MDH2) level by ELISA in treated cancer cells. Type of test: cell-based. As to the method:
(§2) 1×10^6 liver cancer (HepG2), breast cancer (MDA-MB-231), or lung cancer (H1975) cells were treated with calcium malate (CaMal) of 5 mM, calcium dimalate (CaMal2) of 2.5 mM, or calcium malate-dichloroacetic acid (CaMal-DCA) of 1 mM for 48 hours, respectively. After that, proteins were then extracted using RIPA buffer. Biorbyt's Malate dehydrogenase 2 (MDH2), Malic enzyme 2 (ME2) and Malic enzyme 3 (ME3) ELISA assay kits were utilized to quantitatively analyze the respective factors in the above extracted proteins.

Test [6] relates to pancreatic cancer (Aspc-1) cells. As to the kind of experiment: Tumor growth inhibition in pancreatic cancer xenograft mice. The note with it: 20 mg/kg subcutaneously twice a week; 30 days; vs untreated controls; p<0.001 (FIG. 10). Type of test: in vivo, Athymic Balb/c nude mice. As to the method: 1×10^7 pancreatic cancer (Aspc-1) cells were implanted with Athymic Balb/c nude mice and when they grew to approximately 200 mm^3, CaMal of 20 mg/kg was administered subcutaneously twice a week to monitor tumor growth for 30 days.

Test [7] has as its system brain cancer (U-87MG) cells. Briefly: Cancer cell survival rate (MTT reagent, absorbance). It counts as cell-based. The settings on record: 0.5, 1, 2.5, or 5 mM, 96 hours, p<0.001 vs 0.5, 1, and 2.5 mM groups (FIG. 4). The protocol: (§3) 3×10^3 colon cancer (HCT-116) or brain cancer (U-87MG) cells were incubated for 24 hours and then treated with CaMal of 0.5, 1, 2.5, or 5 mM and incubated for another 96 hours. Then, 3-(4,5-dimethylthiazol-2-yl)-2,5-diphenyltetrazolium bromide reagent of 10 μl was added to each well and reacted for 1 hour. After removing the reagent at the end of the reaction, DMSO of 200 μl was added to each well and then the absorbance was measured to confirm a survival rate of the cells.

The subject of test [8] is colon cancer (HCT-116) cells. Described as above. Type of test: cell-based. The note with it: 0.5, 1, 2.5, or 5 mM, 96 hours, p<0.001 vs 0.5, 1, and 2.5 mM groups (FIG. 4). As to the method: as §3
The next test concerns cancer cells. As to the kind of experiment: Death of cancer cells (summary statement). It counts as cell-based. The settings on record: summary of FIGS. 4, 5, 10, 11 (calcium malate, calcium di-malate) and FIGS. 6, 12 (calcium malate and DCA). As to the method: as §3, §1
3×10^3 liver cancer (HepG2), lung cancer (H1975), pancreatic cancer (Aspc-1), or breast cancer (MDA-MB-231) cells were cultured for 24 hours and then treated with CaMal-DCA of 0.5, 1, 2.5, or 5 mM and incubated for another 96 hours. […] After removing the reagent at the end of the reaction, DMSO of 200 μl was added to each well and the absorbance was measured to confirm the survival rate of the cells.

The test system of another test is beta cells. As to the kind of experiment: Insulin levels in culture medium of pancreatic beta cells. The note with it: CaMal 5 mM or CaMal2 2.5 mM, 48 hours. Type of test: cell-based. As to the method:
1×10^6 beta cells were treated with CaMal of 5 mM or CaMal2 of 2.5 mM for 48 hours in the absence or presence of glucose of 5 mM, respectively, and a culture medium was harvested. The medium was placed in a spin concentrator (Corning, Inc.) and run at 7,500 g for 10 minutes to obtain insulin assay samples. The samples were quantitatively analyzed using an assay kit manufactured by Enzo company.

The subject of the next test is Malic enzyme 2 (ME2). Briefly: Malic enzyme 2 (ME2) level by ELISA in treated cancer cells. It counts as cell-based. As to the method: as §2
The next test deals with Malic enzyme 3 (ME3). Briefly: Malic enzyme 3 (ME3) level by ELISA in treated cancer cells. Type of test: cell-based. The protocol:
as §2

[9] abbreviates: HepG2, MDA-MB-231, H1975 cells, CaMal 5 mM, CaMal2 2.5 mM, CaMal-DCA 1 mM, 48 hours, vs untreated controls, p<0.001 (FIG. 1).
Where [10] appears, read: various cancer cell lines (FIG. 1), stated as activity.

As for `O=C(O)CC(O)C(=O)O` (stereo not drawn) [CaMal2, calcium dimalate], the “levels of NAD^+” value in test [1] (listed as calcium di-malate) is recorded as “dramatic exhaustion of NAD^+”. Besides, the “survival rate of the cancer cells” value in test [2] and in test [4] was “decreased the survival rate of the cancer cells in a concentration-dependent manner” each time. Moreover, in test [3], the tumor size entry is “tumor size became reduced visually and clearly”.

For `O=C(O)CC(O)C(=O)O` (stereo not drawn) [CaMal, calcium malate], the “amount of MDH2” value in test [5] (setting [9]) is listed as “significant increase”. Further, the “activity of MDH2” value in [5] (setting [10]) is listed as “significant increase”. For the same compound, in test [6], the tumor size entry is “tumor size became reduced visually and clearly”. The “levels of NAD^+” value in [1] is on record as “significant decrease”; in test [1] (listed as calcium malate) it was “dramatic exhaustion of NAD^+”. Also, the “survival rate of the cancer cells” value in test [7] and in test [8] was “concentration-dependent manner decrease in a survival rate of the cancer cells” throughout. Further, the “death of cancer cells” value in the test with cancer cells is “death of cancer cells”. In addition, the insulin levels entry with beta cells (absence of glucose, p<0.001 vs Control (No-glucose) (FIG. 3)) is recorded as “significant increase in insulin levels”; in the test with beta cells (presence of glucose 5 mM, p<0.001 vs Control (Glucose) (FIG. 3)) it was “significant increase in insulin levels”. Besides, the “amount of ME2” value with Malic enzyme 2 (ME2) (setting [9]) was “significant increase”. For the same compound, the “activity of ME2 / malic enzymes” value with Malic enzyme 2 (ME2) (setting [10]) is given as “significant increase”. The “amount of ME3” value in the test on Malic enzyme 3 (ME3) (setting [9]) was “significant increase”. In addition, the “activity of ME3 / malic enzymes” value in the test on Malic enzyme 3 (ME3) (setting [10]) is “significant increase”.
